Reference: PubChem BioAssay AID1919017 (Molecular Pharmacology Branch, DTP, NCI, 2023)
Values joined by “and” are separate entries in the source; they are usually repeats but may differ in a detail not shown here. Equal values may be shown once.

System: SW1271 complex spheroids with HUVEC/MSC, growth, % test/control
Experiment: Anticancer human tumor SW1271 cell line growth inhibition [AhR];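 also: spheroids exposed to agents for 7 days before readout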
Details: for viability, T/C: stronger effect = lower value
Text: Multicellular complex tumor spheroid response to aryl hydrocarbon receptor antagonists in combination with a variety of drugs and investigational agents in selected tumor cell lines
The current study was undertaken to assess response to aryl hydrocarbon receptor antagonists in combination with standard-of-care drugs and investigational agents in solid tumor complex spheroid models. Complex spheroids include a stromal component modeled by human endothelial cells (HUVEC) and fibroblasts modeled by human mesenchymal stem cells (MSCs). The concentration ranges selected for each drug and investigational agent were based upon clinically achievable concentrations if the clinical Cmax of the agent was known.
Compounds. The drugs and investigational agents: BAY 2416964 (NSC825713), GNF351 (NSC835774), CH-223191 (NSC835775), CPI-455 (NSC825282), aza-TdCyd (NSC777586), decitabine (NSC127716), belinostat (NSC758774), entinostat (NSC756642), pevonedistat (NSC761192), tazemetostat (NSC777109), talazoparib (NSC765396), olaparib (NSC753686), selinexor (NSC780203), nedisertib (M3814, NSC802822), bortezomib (NSC756655), venetoclax (NSC766270), doxorubicin (NSC123127), elimusertib (BAY189344, NSC800525), ceralasertib (AZD6738, NSC777638), TAK-243 (NSC785004), alisertib (NSC759677), etoposide (NSC141540), topotecan (NSC609699), eribulin (NSC707389), gemcitabine (NSC613327), carboplatin (NSC241240), cisplatin (NSC119875), and SN-38 (NSC673596) were obtained from the National Cancer Institute (NCI) Developmental Therapeutics Program Chemical Repository (32). The FDA-approved anticancer drug set is available from the Developmental Therapeutics Program at https://dtp.cancer.gov/organization/dscb/obtaining/available plates.htm. […] The stock solutions were prepared in dimethyl sulfoxide (DMSO, Sigma-Aldrich, St. Louis, MO, cat. D2650), except for the platinum compounds which were prepared in saline (Quality Biological, Gaithersburg, MD, cat. 114-055-101), at 800-fold the tested concentration and stored at -70 degrees C prior to their use. All drugs and investigational agents were tested over a range starting from a high concentration at or near the clinical Cmax and decreasing in half-log increments. If the clinical Cmax for an agent had not been determined, the highest concentration tested was 10 microM (Table 1).
Cell Culture. All cells were maintained in an incubator at 37 degrees C and 5% CO2 with 95% humidity. The PDC lines were cultured according to standard operating procedures established by the NCI PDMR (https://pdmr.cancer.gov). Briefly, all PDCs were thawed and cultured in Matrigel-coated flasks prepared with a working solution of 1X Ham's F-12 nutrient mix, without supplementation (Invitrogen, Waltham, MA, cat. 11765054), 100 U/mL penicillin-streptomycin (Invitrogen, cat. 15140122), and 2.5% Matrigel (Corning Inc., Corning, NY, cat. 354248) for the first three passages. All PDCs were cultured in complete DMEM/F-12 media containing advanced DMEM/F-12 (Invitrogen, cat. 12634028), 4.9% defined fetal bovine serum, heat inactivated (HyClone Laboratories Inc., Logan, UT, cat. SH30070.03HI), 389 ng/mL hydrocortisone (Sigma-Aldrich, cat. H4001), 9.7 ng/mL human EGF recombinant protein (Invitrogen, cat. PHG0313), 23.4 microg/mL adenine (Sigma-Aldrich, cat. A2786), 97.3 U/mL penicillin-streptomycin (Invitrogen, cat. 15140122), 1.9 mM L-glutamine (Invitrogen, cat. 25030081), and 9.7 microM Y-27632 dihydrochloride (Tocris Bioscience, Bristol, United Kingdom, cat. 1254). The PDCs were cultured in complete DMEM/F12 media without 10 microM Y-27632 dihydrochloride for at least two passages prior to the screen. The established cell lines NCI-H1341 and […] were cultured in DMEM/F-12, HEPES (Invitrogen, cat. 11330032), 5% defined fetal bovine serum (HyClone Laboratories Inc., cat. SH30070.03), ITS premix universal culture supplement [insulin (5 microg/mL), transferrin (5 microg/mL), and selenious acid (5 ng/mL)] […]

In the case of COc1ccc([C@@H](O)c2cc(-c3ncnc4cc(N5CCOCC5)ccc34)c(F)cc2Cl)nn1, the viability, T/C (compound 0.0316 µM) is reported as 80.5% and 93.2% and 107%, the viability, T/C (compound 0.1 µM) is reported as 96.4% and 73% and 85.2% and the viability, T/C (compound 0.316 µM) is reported as 76.1% and 70.2% and 81%. For the same molecule, the viability, T/C (compound 1 µM) was 62.3% and 61.5% and 59.7%, the viability, T/C (compound 3.16 µM) was 45.4% and 57% and 39.5% and the viability, T/C (compound 10 µM) was 25.2% and 27.9% and 28.6%. For the same molecule, the IC50 (curve of compound) was 2180 nM and 2740 nM and 1890 nM.

In the case of COc1cccc2c1C(=O)c1c(O)c3c(c(O)c1C2=O)CC(O)(C(=O)CO)CC3OC1CC(N)C(O)C(C)O1 (configuration not stated), the viability, T/C (compound 0.0316 µM) is reported as 66.6% and 50.3% and 72.6%, the viability, T/C (compound 0.1 µM) is reported as 69.8% and 46.8% and 56.1% and the viability, T/C (compound 0.316 µM) is reported as 53% and 29.6% and 40.6%. The viability, T/C (compound 1 µM) was 7.45% and 5.09% and 6.04%, the viability, T/C (compound 3.16 µM) was 4.63% and 2.92% and 2.03% and the viability, T/C (compound 10 µM) was 13.6% and 3.38% and 3.85%.

For Cc1ccccc1N=Nc1ccc(NC(=O)c2ccnn2C)c(C)c1, the IC50 (compound alone, run of 08/22/2022) was > 10000 nM.

For Cc1cncc(-c2nc(NCCc3c[nH]c4ccccc34)c3ncn(C(C)C)c3n2)c1, the viability, T/C (compound 10 µM) was 46.3% [middle of 20 runs].

Cn1ncnc1C1c2n[nH]c(=O)c3cc(F)cc(c23)NC1c1ccc(F)cc1 (configuration not stated) was tested, and the viability, T/C (compound 0.000316 µM) was 114% and 102% and 95.2%, the viability, T/C (compound 0.001 µM) was 97.2% and 109% and 100% and the viability, T/C (compound 0.00316 µM) was 101% and 95.9% and 94%. The viability, T/C (compound 0.01 µM) was 106% and 105% (2×), the viability, T/C (compound 0.0316 µM) was 89.5% and 112% and 96.6% and the viability, T/C (compound 0.1 µM) was 88.7% and 93.8% and 83.6%. For the same molecule, the IC50 (curve of compound) was > 100 nM.

For NS(=O)(=O)OCC1CC(n2ccc3c(NC4CCc5ccccc54)ncnc32)CC1O (configuration not stated), the viability, T/C (compound 0.0316 µM) was 151% and 137% and 133%, the viability, T/C (compound 0.1 µM) was 143% and 152% and 145% and the viability, T/C (compound 0.316 µM) was 120% and 101% and 89.3%. For the same molecule, the viability, T/C (compound 1 µM) was 99.3% and 103% and 71.7%, the viability, T/C (compound 3.16 µM) was 88.6% and 93.6% and 57.3% and the viability, T/C (compound 10 µM) was 77% and 86.9% and 55.2%. For the same molecule, the IC50 (curve of compound) was > 10000 nM and 8700 nM.

In the case of Nc1ccccc1NC(=O)c1ccc(CNC(=O)OCc2cccnc2)cc1, the viability, T/C (compound 0.0316 µM) is reported as 107% and 114% and 87.5%, the viability, T/C (compound 0.1 µM) is reported as 112% and 89.2% and 77% and the viability, T/C (compound 0.316 µM) is reported as 72.5% and 61% and 59.9%. For the same molecule, the viability, T/C (compound 1 µM) was 62.2% and 60.4% and 45.5%, the viability, T/C (compound 3.16 µM) was 37.6% and 38.3% and 33.3% and the viability, T/C (compound 10 µM) was 10.4% and 14.2% and 7.86%. For the same molecule, the IC50 (curve of compound) was 1620 nM and 1180 nM and 765 nM.

For Nc1ccn(C2OC(CO)C(O)C2(F)F)c(=O)n1 (configuration not stated), the viability, T/C (compound 0.0316 µM) was 75.2% and 49% and 67.7%, the viability, T/C (compound 0.1 µM) was 65.6% and 48.5% and 66.2% and the viability, T/C (compound 0.316 µM) was 69.9% and 41.9% and 48.2%. The viability, T/C (compound 1 µM) was 57.6% and 44.3% and 50%, the viability, T/C (compound 3.16 µM) was 57.8% and 50.9% and 56.9% and the viability, T/C (compound 10 µM) was 64.4% and 44.9% and 47.5%.

For Nc1ncn(C2CC(O)C(CO)O2)c(=O)n1 (configuration not stated), the viability, T/C (compound 0.00316 µM) was 97.1% and 72.6% and 93.8%, the viability, T/C (compound 0.01 µM) was 107% and 124% and 97% and the viability, T/C (compound 0.0316 µM) was 95.4% and 81.6% and 69.9%. The viability, T/C (compound 0.1 µM) was 86.8% and 94.5% and 63.9%, the viability, T/C (compound 0.316 µM) was 93.2% and 73.9% and 68.4% and the viability, T/C (compound 1 µM) was 101% and 80.6% and 66.2%. For the same molecule, the IC50 (curve of compound) was > 1000 nM.

With Nc1ncn(C2CC(O)C(CO)S2)c(=O)n1 (configuration not stated) the viability, T/C (compound 0.000949 µM) was 87.6% and 102% and 94.9%, the viability, T/C (compound 0.003 µM) was 97.8% and 95.9% and 114% and the viability, T/C (compound 0.00949 µM) was 85.7% and 82.9% and 113%. The viability, T/C (compound 0.03 µM) was 94.8% and 90.3% and 103%, the viability, T/C (compound 0.0949 µM) was 89.2% and 85.8% and 94.6% and the viability, T/C (compound 0.3 µM) was 78.8% and 82.7% and 78.6%. The IC50 (curve of compound) was > 300 nM.

O=C(C=Cc1cccc(S(=O)(=O)Nc2ccccc2)c1)NO was tested, and the viability, T/C (compound 0.0316 µM) was 103% and 83.5% and 85.7%, the viability, T/C (compound 0.1 µM) was 93.6% and 105% and 72.1% and the viability, T/C (compound 0.316 µM) was 84.1% and 62.7% and 54.9%. The viability, T/C (compound 1 µM) was 62.3% and 55.8% and 46.2%, the viability, T/C (compound 3.16 µM) was 31.1% and 22.6% and 23.3% and the viability, T/C (compound 10 µM) was 13.2% and 16.8% and 9.23%. The IC50 (curve of compound) was 1550 nM and 963 nM and 556 nM.

O=C(C=Cn1cnc(-c2cc(C(F)(F)F)cc(C(F)(F)F)c2)n1)NNc1cnccn1 was tested, and the viability, T/C (compound 0.00949 µM) was 95.2% and 89.5% and 105%, the viability, T/C (compound 0.03 µM) was 92.7% and 78.8% and 61.8% and the viability, T/C (compound 0.0949 µM) was 79.7% and 88.9% and 77.8%. The viability, T/C (compound 0.3 µM) was 78.9% and 65.1% and 64.9%, the viability, T/C (compound 0.949 µM) was 55% and 57% and 44.6% and the viability, T/C (compound 3 µM) was 42.1% and 41.2% and 35.7%. The IC50 (curve of compound) was 1660 nM and 1430 nM and 701 nM.

In the case of O=C(c1cc(Cc2n[nH]c(=O)c3ccccc23)ccc1F)N1CCN(C(=O)C2CC2)CC1, the viability, T/C (compound 0.0316 µM) is reported as 93% and 99.8% (2×), the viability, T/C (compound 0.1 µM) is reported as 101% and 109% and 92.5% and the viability, T/C (compound 0.316 µM) is reported as 90.8% and 96.5% and 82.1%. The viability, T/C (compound 1 µM) was 84.3% and 88.2% and 89.1%, the viability, T/C (compound 3.16 µM) was 80.5% and 98.7% and 74.1% and the viability, T/C (compound 10 µM) was 66% and 77.4% and 76.5%. For the same molecule, the IC50 (curve of compound) was > 10000 nM.
